Test results taken from paper PMC11601876, “Manganese-based type I collagen-targeting MRI probe for in vivo imaging of liver fibrosis” (Research Square, 2024).

Legend:
[1] = Kinetic inertness: Mn2+ dissociation upon Zn2+ challenge; format: physicochemical; settings: 0.5 mM Mn2+ (0.167 mM Mn-CBP20), 10 mM Zn(OTf)2, pH 7.4 50 mM Tris/18 mM citrate, 27 °C, monitored by r2 change at 1.4T
Description: Figure 2. In vitro assays for collagen binding and kinetic inertness.
To assess kinetic inertness to Mn^2+ release, we evaluated Mn^2+ dissociation kinetics upon challenge of 0.167 mM Mn-CBP20 (0.5 mM Mn^2+) with 10 mM Zn(OTf)2 in the presence of pH 7.4 50 mM Tris/ 18 mM citrate buffer, Figure 2B. The presence of a weak chelator such as citrate is required to maintain homogenous reaction conditions during the course of the measurement, as treatment of Mn-CBP20 with even 1 mol equiv. […] Mn^2+ dissociation was monitored by observing change in r2. Under this set of assay conditions, the r2 value associated with dissociated Mn^2+ (16.3 mM^−1s^−1) is approximately half that of Mn^2+ bound within Mn-CBP20. As positive control, we monitored Mn^2+ dissociation from the kinetically inert complex Mn-CDTA (r2 = 5.9 mM^−1s^−1).

[2] = rats; in words; cited from earlier work
Source text: Whole body PET-CT images recorded 1 and 7 days after [^52Mn]Mn-CBP20 injection are shown in Figure 6A and ex vivo ^52Mn biodistribution data are shown in Figure 6B and 6C and also tabulated in Supplementary Tables 1 and 2. The highest concentration of ^52Mn 1 day after injection is found in the kidneys, consistent with the expected renal elimination of the compound.

| Molecule | half-life (t1/2) of Mn2+ dissociation [1] | 52Mn uptake in salivary glands relative to other tissues [2] |
| --- | --- | --- |
| O=C([O-])CN(CC(=O)[O-])C1CCCCC1N(CC(=O)[O-])CC(=O)[O-].[Mn+2] (centres unmarked) [Mn-CDTA] | 15.5 h |  |
| Mn-DPDP |  | high and persistent ^52Mn uptake in the salivary glands relative to other tissues |
